The values that follow come from patent US8637439B2, “Bathing gel with improved environmental profile” (Coty Inc., priority 2009, dated 2014).

Data set [1] deals with aquatic trophic levels (fish, crustaceous, algae). Kind of data set: Acute aquatic toxicity (aquatic trophic levels). In kind it is in vivo. The note with it: L(E)C50/SFacute. An excerpt: (§1) A comparison of the relative aquatic toxicity profile of the long-chain alkyl hydroxyalkyl cellulose derivative compared to anionic alketh surfactant is shown in Table 3.
(§2) The terms used are defined as follows: • LC50 or EC50: Lethal or effect concentration 50=Concentration in water having 50% chance of causing adverse effects or death to aquatic life) • SFacute: Safety Factor, determined according the number of trophic levels (fish, crustaceous, algae) studied (the largest, the best) • TFacute: L(E)C50/SFacute • NOEC: No observed effect concentration=The highest concentration for which the difference from the control group is not statistically significant in a long term study • SFchronic: Safety Factor, determined according the number of trophic levels (fish, crustaceous, algae) studied • TFchronic: NOEC/SFchronic

For data set [2] the test system is unchanged. Nature of the data set: Chronic aquatic toxicity (aquatic trophic levels). In kind it is in vivo.
Source text: as §1, §2

In the case of C 12/15 A 1-3 EO sulfate, in data set [1], the TFacute is 0.0041. The TFchronic in data set [2] (NOEC/SFchronic) is 0.01. This sequence returned an NOEC in data set [2] (chronic toxicity, long term study) of 0.1.
